Test results published in US11034700B2, “Substituted pyrrolidine compound and use thereof” (Takeda Pharmaceutical Company Limited, priority 2017, dated 2021).

Molecular target: T1, human OX2 receptor (Homo sapiens, UniProt O43614)
T1 construct: expressed in transfected cells
T1 sequence (O43614 1-444): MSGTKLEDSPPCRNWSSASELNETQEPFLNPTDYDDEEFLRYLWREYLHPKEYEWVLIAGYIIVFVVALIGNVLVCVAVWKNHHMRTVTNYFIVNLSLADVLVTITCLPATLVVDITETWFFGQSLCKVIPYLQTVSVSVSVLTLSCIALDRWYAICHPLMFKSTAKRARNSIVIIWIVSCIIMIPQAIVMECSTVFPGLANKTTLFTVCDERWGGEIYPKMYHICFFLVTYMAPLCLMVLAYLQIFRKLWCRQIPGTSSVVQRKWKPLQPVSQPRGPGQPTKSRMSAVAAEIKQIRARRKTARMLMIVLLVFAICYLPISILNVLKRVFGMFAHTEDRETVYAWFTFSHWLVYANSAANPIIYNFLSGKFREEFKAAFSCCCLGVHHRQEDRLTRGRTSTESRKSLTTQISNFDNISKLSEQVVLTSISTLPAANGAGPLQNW
Assay: Measurement of orexin type 2 receptor agonist activity (Fluo-4 calcium fluorescence, FDSS)
Type: cell-based
Conditions: compound at 3 μM; CHO cells forcibly expressing human OX2 receptor; DMSO = 0%, orexin A (human) 10 nM = 100%
Excerpt: Experimental Example 1: Obtainment of Cell Stably Expressing Human Orexin Type 2 Receptor (hOX2R)
To obtain a cell clone stably expressing human orexin type 2 receptor, human orexin type 2 receptor cDNA was inserted into pcDNA3.1(+) plasmid vector (Invitrogen), and a plasmid DNA for expression of human orexin type 2 receptor (pcDNA3.1(+)/hOX2R) was cloned. The plasmid DNA was introduced into CHO-dhfr cell by an electroporation method, and human orexin type 2 receptor expressing clone cells were obtained by limiting dilution method by using G418 drug resistance as a selection marker.
Experimental Example 2: Measurement of Orexin Type 2 Receptor Agonist Activity
CHO cells forcibly expressing human OX2 receptor were seeded in each well of 384 well black transparent bottom plate (BD Falcon) at 7,500 cells/well, and cultured for one day in a 5% CO2 incubator at 37° C. After removal of the medium in the cell plate, assay buffer A containing a calcium indicator (HESS (Life Technologies), 20 mM HEPES (Life Technologies), 0.1% BSA (Wako Pure Chemical Industries, Ltd.), 2.5 μg/mL Fluo-4 AM (DOJINDO Chemical), 0.08% Pluronic F127 (DOJINDO Chemical), 1.25 mM probenecid (DOJINDO Chemical)) was added at 30 μL/well. The plate was stood for 30 min in a 5% CO2 incubator at 37° C., and further stood at room temperature for 30 min. A test compound prepared by diluting with assay buffer B (HESS, 20 mM HEPES, 0.1% BSA) was added at 10 μL/well, and the fluorescence value was measured by FDSSμCELL (Hamamatsu Photonics K.K.) every one sec for 1 min, and thereafter every two sec for 1 min 40 sec. The activity (%) of the test compound was calculated assuming that variation in the fluorescence value when DMSO was added instead of the test compound was 0% […], and variation in the fluorescence value when orexin A (human) (PEPTIDE INSTITUTE, INC.) was added at the final concentration of 10 nM was 100% […]. The activity of each compound at the concentration of 3 μM was shown below.

OX2R agonist activity (3 μM, %) [%]	SMILES
92	COc1ccc(-c2cccc(C(=O)N(C)C)c2)cc1S(=O)(=O)Nc1cccc(CC2CCN(C(=O)c3cc(C)ccc3C)C2)n1 (stereo not drawn) [Example 45, 3′-((6-((1-(2,5-dimethylbenzoyl)pyrrolidin-3-yl)methyl)pyridin-2-yl)sulfamoyl)-4′-methoxy-N,N-dimethylbiphenyl-3-carboxamide]
64	COc1ccc(-c2cccc(C(=O)N(C)C)c2)cc1S(=O)(=O)Nc1cc(OC2CCN(C(=O)c3cccc(C)c3)C2)ccn1 (stereo not drawn) [Example 49, 4′-methoxy-N,N-dimethyl-3′-((4-((1-(3-methylbenzoyl)pyrrolidin-3-yl)oxy)pyridin-2-yl)sulfamoyl)biphenyl-3-carboxamide]
104	COc1ccc(-c2cccc(C(=O)N(C)C)c2)cc1S(=O)(=O)Nc1cccc(N(C)C2CCN(C(=O)c3cc(C)ccc3C)C2)c1 (stereo not drawn) [Example 58, 3′-((3-((1-(2,5-dimethylbenzoyl)pyrrolidin-3-yl)(methyl)amino)phenyl)sulfamoyl)-4′-methoxy-N,N-dimethylbiphenyl-3-carboxamide]
69	COc1ccccc1S(=O)(=O)Nc1cccc(O[C@H]2CCN(C(=O)c3cc(C)ccc3C)C2)c1 [Example 62, N-(3-(((3S)-1-(2,5-dimethylbenzoyl)pyrrolidin-3-yl)oxy)phenyl)-2-methoxybenzenesulfonamide]
112	COc1ccccc1S(=O)(=O)Nc1cccc(O[C@@H]2CN(C(=O)c3cc(C)ccc3C)C[C@H]2OC)c1 [Example 63, N-(3-(((3R,4R)-1-(2,5-dimethylbenzoyl)-4-methoxypyrrolidin-3-yl)oxy)phenyl)-2-methoxybenzenesulfonamide]
89	COc1ccc(-c2cccc(C(=O)N(C)C)c2)cc1S(=O)(=O)Nc1cccc(O[C@H]2CCN(C(=O)c3c(C)cccc3C)C2)c1F [Example 71, 3′-((3-(((3S)-1-(2,6-dimethylbenzoyl)pyrrolidin-3-yl)oxy)-2-fluorophenyl)sulfamoyl)-4′-methoxy-N,N-dimethylbiphenyl-3-carboxamide]
85	COc1ccc(-c2cccc(C(=O)N(C)C)c2)cc1S(=O)(=O)Nc1cc(O[C@H]2CCN(C(=O)c3c(C)cccc3C)C2)ccc1F [Example 72, 3′-((5-(((3S)-1-(2,6-dimethylbenzoyl)pyrrolidin-3-yl)oxy)-2-fluorophenyl)sulfamoyl)-4′-methoxy-N,N-dimethylbiphenyl-3-carboxamide]
104	COc1ccccc1S(=O)(=O)Nc1cccc(O[C@@H]2CN(C(=O)c3c(C)cccc3C)C[C@H]2OC)c1 [Example 74, N-(3-(((3R,4R)-1-(2,6-dimethylbenzoyl)-4-methoxypyrrolidin-3-yl)oxy)phenyl)-2-methoxybenzenesulfonamide]
79	COc1ccccc1S(=O)(=O)Nc1cccc(O[C@@H]2CN(C(=O)C3(c4ccccc4)CC3)C[C@H]2OC)c1 [Example 76, 2-methoxy-N-(3-(((3R,4R)-4-methoxy-1-((1-phenylcyclopropyl)carbonyl)pyrrolidin-3-yl)oxy)phenyl)benzenesulfonamide]
76	CCCS(=O)(=O)Nc1cccc(O[C@@H]2CN(C(=O)c3cc(C)ccc3C)C[C@H]2OC)c1 [Example 79, N-(3-(((3R,4R)-1-(2,5-dimethylbenzoyl)-4-methoxypyrrolidin-3-yl)oxy)phenyl)propane-1-sulfonamide]
92	CO[C@@H]1CN(C(=O)c2cc(C)ccc2C)C[C@H]1Oc1cccc(NS(=O)(=O)C2CCOCC2)c1 [Example 81, N-(3-(((3R,4R)-1-(2,5-dimethylbenzoyl)-4-methoxypyrrolidin-3-yl)oxy)phenyl)tetrahydro-2H-pyran-4-sulfonamide]
101	CO[C@@H]1CN(C(=O)c2cc(C)ccc2C)C[C@H]1Oc1cccc(NS(=O)(=O)c2ccccc2F)c1 [Example 82, N-(3-(((3R,4R)-1-(2,5-dimethylbenzoyl)-4-methoxypyrrolidin-3-yl)oxy)phenyl)-2-fluorobenzenesulfonamide]
96	CO[C@@H]1CN(C(=O)c2cc(C)ccc2C)C[C@H]1Oc1cccc(NS(=O)(=O)c2sccc2Cl)c1 [Example 84, 3-chloro-N-(3-(((3R,4R)-1-(2,5-dimethylbenzoyl)-4-methoxypyrrolidin-3-yl)oxy)phenyl)thiophene-2-sulfonamide]
80	COc1ccccc1S(=O)(=O)Nc1cccc(O[C@@H]2CN(C(=O)c3c(C)cccc3F)C[C@H]2OC)c1 [Example 96, N-(3-(((3R,4R)-1-(2-fluoro-6-methylbenzoyl)-4-methoxypyrrolidin-3-yl)oxy)phenyl)-2-methoxybenzenesulfonamide]
93	COc1ccccc1S(=O)(=O)Nc1cccc(O[C@@H]2CN(C(=O)c3c(C)cccc3OC)C[C@H]2OC)c1 [Example 97, 2-methoxy-N-(3-(((3R,4R)-4-methoxy-1-(2-methoxy-6-methylbenzoyl)pyrrolidin-3-yl)oxy)phenyl)benzenesulfonamide]
